Experimental data taken from patent US5612204A, “Biological degradative treatment of chlorine substituted ethylene” (priority 1994, dated 1997).
Where two headings read alike, the source gives them in different places.

Experiments:
[1] = tested on: Nocardia corallina B-276 (FERM P-4094; FERM BP-5124; ATCC 31338); test: Reaction rate of degradation of chlorine-substituted substrates (Example 4, Table 1); format: cell-based
Protocol: Experiments were also carried on tetrachloroethylene (perchloroethylene) (PCE) and 1,2-dichloroethane (1,2-DCA).
The initial concentration of each substrate in the liquid phase was selected so as not to exceed 20 mg/l, i.e., the range in which no inhibition on the enzyme reaction is expected. Specifically, the substrate was added in an amount of […] which corresponded to 11.2 mg/l of trichloroethylene in terms of initial concentration in the liquid phase. […] The cell concentration during the reaction was set at 4.0 g/l or 8.0 g/l, and the concentration of the substrate remaining in the gas phase was measured with time in the same manner as in Example 3 and converted to the concentration in the liquid phase, from which the reaction rate was calculated.

[2] = tested on: Nocardia corallina B-276 (FERM P-4094; FERM BP-5124; ATCC 31338); test: Degradation of trichloroethylene by Nocardia corallina B-276 cell suspension (Example 1); format: cell-based; conditions: 1 mM trichloroethylene, glucose added, 30° C., 12 hours
Protocol: In a 500 ml Sakaguchi's flask was put 100 ml of NBG medium (a liquid medium containing 10 g of Lab-Lemco powder (produced by Oxoid Co., Ltd.), 10 g of bacteriological peptone, 10 g of glucose, 5 g of sodium chloride, and water to make 1 l, adjusted to pH 7.5 with a 1N aqueous sodium hydroxide solution, steam sterilized by autoclaving at 120° C. for 15 minutes) and inoculated with three loopfuls of Nocardia corallina B-276 (FERM P-4094; FERM BP-5124; ATCC 31338) using a platinum loop, followed by shake culture at 30° C. for 96 hours for previous proliferation.
The resulting culture was centrifuged to collect the microbial cells, which were suspended in 50 ml of a minimal medium (K2 HPO4 1.74 g, MgSO4. 7H2 O 1.5 g, FeSO4. H2 O 0.05 g, deionized water 1 l; adjusted to pH 8.0) to prepare a cell suspension. […]
For comparison, 50 ml of a cell-free medium (K2 HPO4 1.74 g, MgSO4.7H2 O 1.5 g, FeSO4. H2 O 0.05 g, deionized water 1 l; adjusted to pH 8.0) was put to a flask of the same volume as used above, and 2.5 ml of a 10% glucose solution and trichloroethylene (final concentration: 1 mM) were added thereto. […] The signal intensity (I2) was 95% or more of the initial signal intensity (I0) measured on the medium immediately after addition of trichloroethylene.

[3] = tested on: E. coli JM109 (pDBB-1) (FERM BP-4250), transformant having an alkene monooxygenase gene of Nocardia corallina B-276 origin; test: Degradation of trichloroethylene by transformant E. coli JM109 (pDBB-1) cell suspension (Example 2); format: cell-based, Escherichia coli; conditions: 1 mM trichloroethylene, glucose added, 30° C., 12 hours
Protocol: LB medium (1.5 ml) (a liquid medium containing 10 g of Bacto-trypton, 5 g of Bacto-yeast extract, 10 g of sodium chloride, and deionized water to make 1 l, adjusted to pH 7.2 with a 1N aqueous […] solution, steam sterilized by autoclaving at 120° C. for 15 minutes) containing 50 μg/ml of ampicillin was inoculated with one loopful of E. coli JM109 (pDBB-1) (FERM BP-4250) using a platinum loop, which is a transformant having an alkene monooxygenase gene of Nocardia corallina B-276 origin, and incubated at 37° C. overnight (about 14 hours) for previous proliferation of the microorganism. Then, 100 ml of LB medium containing 50 μg/ml of ampicillin was inoculated with the resulting culture and incubated at 37° C. for 2 hours. To the culture was added isopropyl-β-D-thiogalactopyranoside (IPTG) at a final concentration of 1 mM, followed by further shake culture at 37° C. for 5 hours. A 10 ml aliquot of the resulting culture was centrifuged to collect the microbial cells, which were suspended in 2 ml of a minimal medium (K2 HPO4 1.74 g, MgSO4.7H2 O 1.5 g, FeSO4.H2 O 0.05 g, deionized water 1 l; adjusted to pH 8.0) to prepare a cell suspension. […]

[4] = tested on: Nocardia corallina B-276 (FERM P-4094; FERM BP-5124; ATCC 31338); test: Influence of trichloroethylene concentration on reaction rate of biological oxidation (Example 3); format: cell-based; conditions: 35° C.
From the text: In the biological oxidation of trichloroethylene with Nocardia corallina B-276 (FERM […]; FERM BP-5124; ATCC 31338), the influence of the trichloroethylene concentration on the reaction rate was examined as follows.
Nocardia corallina B-276 (FERM P-4094; FERM BP-5124; ATCC 31338) was previously proliferated in the same manner as described in Example 1. The microbial cells collected were suspended in a medium (K2 HPO4 1.74 g, MgSO4 .7H2 O 1.5 g, FeSO4.H2 O 0.05 g, deionized water 1 l; adjusted to pH 8.0) to prepare a cell suspension.
In a 17 ml-volume flask was put 2 ml of the cell suspension, 100 μl of a 10% glucose solution added as an energy source, a varied amount of trichloroethylene added thereto, and the flask sealed and incubated at 35° C. for 5 hours while shaking to allow the cells to act on the trichloroethylene. The cell concentration was 2.44 g/l. A 1 ml aliquot of the gas was taken out every 1 hour from the gas phase of the sealed flask and analyzed by gas chromatography (column: Porapak Q) to measure the gaseous trichloroethylene concentration. The trichloroethylene concentration remaining in the liquid phase was calculated from the gaseous phase trichloroethylene concentration. This calculation was made on the assumption that the partitioning of trichloroethylene between the gas and liquid phases in the vial are obeyed by the partition law.
FIG. 3 is a graph of rate of reduction of liquid phase trichloroethylene concentration plotted against initial trichloroethylene concentration.

[5] = Cell Concentration 4.0 g/l, initial substrate concentration not exceeding 20 mg/l

Compound	degradability by Nocardia corallina B-276 ([1]; result in words)	Reaction Rate [1, 5] [mg/L/h]	Reaction Rate ([1]; cell concentration 4.0 g/l) [mg/l hr]	degradability by Nocardia corallina B-276 [1]	also measured
C=C(Cl)Cl [1,1-Dichloroethylene, 1,1-dichloroethylene]	can be degraded				Reaction Rate ([1]; Cell Concentration 8.0 g/l, initial substrate concentration not exceeding 20 mg/l): 14.8 mg/L/h; reaction rate, corresponding value (for the cell concentration of the other substrates) ([1]; converted from the 8.0 g/l measurement): 7.4 mg/l hr
ClCCCl [1,2-Dichloroethane, 1,2-dichloroethane]	cannot be degraded	0			
ClC(Cl)=C(Cl)Cl [Tetrachloroethylene, tetrachloroethylene]	cannot be degraded	0			
ClC=C(Cl)Cl [Trichloroethylene, trichloroethylene]		5.5	5.5		trichloroethylene degraded [2]: about 98%; trichloroethylene concentration remaining in the medium (signal intensity I1 relative to I2) ([2]; sealed flask, gas chromatography, relative to cell-free medium): about 2%; trichloroethylene degraded [3]: about 17%; trichloroethylene concentration remaining in the medium (signal intensity I4 relative to I3) ([3]; sealed flask, gas chromatography): about 83%; Michaelis constant Km of the trichloroethylene substrate ([4]; cell concentration 2.44 g/l, calculated based on the results of FIG. 3): 90.4 mg/L; Km ([4]; cell concentration 2.44 g/l, calculated based on the results of FIG. 3, read-out: Michaelis constant Km of the trichloroethylene substrate): 678 µM; inhibition of the reaction by substrate ([4]; at least up to 90 mg/l of the initial trichloroethylene concentration in the liquid phase): no obvious inhibition
Cl/C=C\Cl [cis-1,2-Dichloroethylene, cis-1,2-dichloroethylene]		72.2		can be degraded	
Cl/C=C/Cl [trans-1,2-dichloroethylene]		6.5	6.5	can be degraded	
